Test results reported in ChEMBL document CHEMBL5291721, “A preclinical secondary pharmacology resource illuminates target-adverse drug reaction associations of marketed drugs” (Nat Commun, 2023).

Key:
[1] = biological target: Gamma-aminobutyric acid receptor subunit alpha-1 (Rattus norvegicus, UniProt P62813)
[2] = biological target: T1, Muscarinic acetylcholine receptor M1 (Homo sapiens, UniProt P11229)
T1 sequence (P11229 whole entry): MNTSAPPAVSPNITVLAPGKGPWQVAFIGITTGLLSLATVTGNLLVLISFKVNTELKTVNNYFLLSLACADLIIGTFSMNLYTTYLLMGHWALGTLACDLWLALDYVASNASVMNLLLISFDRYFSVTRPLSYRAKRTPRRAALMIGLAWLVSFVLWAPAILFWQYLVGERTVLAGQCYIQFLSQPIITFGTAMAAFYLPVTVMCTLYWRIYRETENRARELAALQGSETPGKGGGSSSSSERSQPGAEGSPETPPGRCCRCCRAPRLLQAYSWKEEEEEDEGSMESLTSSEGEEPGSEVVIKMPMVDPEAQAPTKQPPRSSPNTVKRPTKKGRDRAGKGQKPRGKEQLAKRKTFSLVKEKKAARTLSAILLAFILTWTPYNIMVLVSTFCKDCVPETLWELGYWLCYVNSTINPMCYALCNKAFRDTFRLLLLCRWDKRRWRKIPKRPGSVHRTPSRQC

[3] = biological target: T2, Progesterone receptor (Homo sapiens, UniProt P06401)
T2 sequence (P06401 whole entry): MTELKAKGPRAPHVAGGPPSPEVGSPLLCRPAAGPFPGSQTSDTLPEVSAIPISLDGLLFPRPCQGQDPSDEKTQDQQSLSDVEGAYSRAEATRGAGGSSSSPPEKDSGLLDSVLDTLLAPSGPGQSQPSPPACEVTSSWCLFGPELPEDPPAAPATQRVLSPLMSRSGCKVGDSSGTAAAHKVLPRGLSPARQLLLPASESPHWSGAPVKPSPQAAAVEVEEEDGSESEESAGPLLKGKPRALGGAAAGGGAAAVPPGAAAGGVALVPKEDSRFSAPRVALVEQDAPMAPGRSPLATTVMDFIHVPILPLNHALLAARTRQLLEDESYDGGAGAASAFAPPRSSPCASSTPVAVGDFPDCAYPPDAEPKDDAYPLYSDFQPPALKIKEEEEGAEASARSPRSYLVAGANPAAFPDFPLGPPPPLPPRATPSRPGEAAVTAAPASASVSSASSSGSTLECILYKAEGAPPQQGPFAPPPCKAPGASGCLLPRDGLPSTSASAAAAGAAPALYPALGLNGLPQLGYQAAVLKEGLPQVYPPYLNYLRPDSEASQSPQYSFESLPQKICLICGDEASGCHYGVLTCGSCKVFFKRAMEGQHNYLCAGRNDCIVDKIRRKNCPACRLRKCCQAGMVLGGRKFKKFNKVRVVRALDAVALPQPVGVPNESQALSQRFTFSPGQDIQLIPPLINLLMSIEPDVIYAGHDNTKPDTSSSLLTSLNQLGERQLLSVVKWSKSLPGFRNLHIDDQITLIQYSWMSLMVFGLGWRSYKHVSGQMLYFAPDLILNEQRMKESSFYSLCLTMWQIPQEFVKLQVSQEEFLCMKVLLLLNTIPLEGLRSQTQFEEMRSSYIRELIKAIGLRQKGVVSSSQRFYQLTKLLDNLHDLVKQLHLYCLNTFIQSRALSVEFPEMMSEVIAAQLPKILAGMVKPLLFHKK

[4] = biological target: T3, Estrogen receptor (Homo sapiens, UniProt P03372)
T3 sequence (P03372 whole entry): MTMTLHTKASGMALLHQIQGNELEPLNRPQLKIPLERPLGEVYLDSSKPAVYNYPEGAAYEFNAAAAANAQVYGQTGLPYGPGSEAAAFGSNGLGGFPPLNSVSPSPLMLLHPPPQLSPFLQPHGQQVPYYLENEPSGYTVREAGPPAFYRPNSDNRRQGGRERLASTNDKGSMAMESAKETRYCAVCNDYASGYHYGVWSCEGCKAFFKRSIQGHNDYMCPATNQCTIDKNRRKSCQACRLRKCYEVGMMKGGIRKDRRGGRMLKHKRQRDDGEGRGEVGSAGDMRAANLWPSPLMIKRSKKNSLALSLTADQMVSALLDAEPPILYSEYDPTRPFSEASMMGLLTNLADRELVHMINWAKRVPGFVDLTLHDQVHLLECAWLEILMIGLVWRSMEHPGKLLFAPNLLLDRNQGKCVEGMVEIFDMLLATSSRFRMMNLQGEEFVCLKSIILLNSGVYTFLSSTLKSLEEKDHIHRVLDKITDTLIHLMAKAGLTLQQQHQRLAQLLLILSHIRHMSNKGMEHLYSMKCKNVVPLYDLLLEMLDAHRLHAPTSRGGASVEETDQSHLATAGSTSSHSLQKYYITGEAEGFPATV

[5] = biological target: Substance-P receptor (Homo sapiens, UniProt P25103)
Sequence of Substance-P receptor (P25103 whole entry): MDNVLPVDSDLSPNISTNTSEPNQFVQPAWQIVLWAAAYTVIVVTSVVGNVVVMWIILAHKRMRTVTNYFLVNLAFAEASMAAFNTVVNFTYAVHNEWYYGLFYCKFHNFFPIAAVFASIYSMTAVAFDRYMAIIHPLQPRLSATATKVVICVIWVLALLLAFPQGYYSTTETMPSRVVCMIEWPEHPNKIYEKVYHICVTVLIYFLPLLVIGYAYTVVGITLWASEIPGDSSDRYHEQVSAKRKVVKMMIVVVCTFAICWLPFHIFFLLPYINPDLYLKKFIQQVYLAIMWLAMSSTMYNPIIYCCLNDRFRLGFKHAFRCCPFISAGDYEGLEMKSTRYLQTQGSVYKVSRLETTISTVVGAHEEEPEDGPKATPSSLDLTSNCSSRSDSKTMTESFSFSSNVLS

[6] = biological target: T4, Alpha-1A adrenergic receptor (Homo sapiens, UniProt P35348)
T4 sequence (P35348 whole entry): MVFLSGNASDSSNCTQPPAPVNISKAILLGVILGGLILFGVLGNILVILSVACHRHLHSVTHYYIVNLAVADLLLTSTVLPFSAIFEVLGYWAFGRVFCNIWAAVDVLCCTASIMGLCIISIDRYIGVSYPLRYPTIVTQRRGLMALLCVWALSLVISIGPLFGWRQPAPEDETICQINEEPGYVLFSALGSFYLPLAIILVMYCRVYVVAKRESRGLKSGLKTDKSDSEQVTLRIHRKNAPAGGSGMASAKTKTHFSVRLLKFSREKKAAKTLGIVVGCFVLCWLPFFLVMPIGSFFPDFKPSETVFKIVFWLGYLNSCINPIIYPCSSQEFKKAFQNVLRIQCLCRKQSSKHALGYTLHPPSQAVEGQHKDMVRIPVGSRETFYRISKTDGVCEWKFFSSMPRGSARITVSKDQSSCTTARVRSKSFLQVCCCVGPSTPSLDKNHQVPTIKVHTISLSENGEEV

[7] = biological target: Vascular endothelial growth factor receptor 2 (Homo sapiens, UniProt P35968); assay type: functional
Sequence of Vascular endothelial growth factor receptor 2 (P35968 whole entry): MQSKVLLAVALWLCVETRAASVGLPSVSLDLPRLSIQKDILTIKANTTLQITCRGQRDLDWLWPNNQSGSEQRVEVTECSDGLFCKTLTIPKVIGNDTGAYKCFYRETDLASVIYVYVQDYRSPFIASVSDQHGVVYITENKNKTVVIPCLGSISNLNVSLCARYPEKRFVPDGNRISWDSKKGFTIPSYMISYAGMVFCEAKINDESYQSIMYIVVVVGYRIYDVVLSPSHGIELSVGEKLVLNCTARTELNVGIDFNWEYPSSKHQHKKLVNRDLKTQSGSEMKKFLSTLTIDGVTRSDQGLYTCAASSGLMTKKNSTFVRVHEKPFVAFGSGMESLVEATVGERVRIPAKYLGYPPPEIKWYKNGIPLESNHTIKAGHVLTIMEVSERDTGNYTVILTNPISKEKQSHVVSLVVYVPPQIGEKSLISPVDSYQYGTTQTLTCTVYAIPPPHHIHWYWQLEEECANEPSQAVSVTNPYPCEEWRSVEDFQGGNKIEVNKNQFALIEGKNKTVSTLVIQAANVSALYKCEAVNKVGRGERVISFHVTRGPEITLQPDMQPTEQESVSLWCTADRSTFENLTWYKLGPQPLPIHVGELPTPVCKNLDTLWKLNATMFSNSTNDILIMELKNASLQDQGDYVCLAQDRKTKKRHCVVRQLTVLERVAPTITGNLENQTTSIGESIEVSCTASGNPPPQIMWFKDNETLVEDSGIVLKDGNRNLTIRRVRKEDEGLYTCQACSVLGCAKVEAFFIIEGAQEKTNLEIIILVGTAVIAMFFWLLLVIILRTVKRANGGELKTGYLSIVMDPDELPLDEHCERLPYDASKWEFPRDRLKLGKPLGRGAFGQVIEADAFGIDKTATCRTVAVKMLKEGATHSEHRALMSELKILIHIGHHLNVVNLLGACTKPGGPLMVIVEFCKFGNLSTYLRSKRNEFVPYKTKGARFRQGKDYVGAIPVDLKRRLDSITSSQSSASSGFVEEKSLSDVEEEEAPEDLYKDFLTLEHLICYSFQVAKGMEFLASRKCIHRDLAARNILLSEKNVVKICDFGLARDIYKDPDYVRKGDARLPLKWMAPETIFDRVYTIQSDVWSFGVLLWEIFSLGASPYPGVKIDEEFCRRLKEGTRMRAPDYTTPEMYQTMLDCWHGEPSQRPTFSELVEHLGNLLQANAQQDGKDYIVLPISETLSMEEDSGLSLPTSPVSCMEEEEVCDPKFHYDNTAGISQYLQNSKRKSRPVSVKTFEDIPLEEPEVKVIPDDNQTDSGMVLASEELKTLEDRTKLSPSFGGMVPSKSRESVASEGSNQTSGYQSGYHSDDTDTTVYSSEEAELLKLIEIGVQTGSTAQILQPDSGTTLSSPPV

[8] = biological target: Gamma-aminobutyric acid receptor subunit alpha-1/alpha-2/beta-2/gamma-2 (Homo sapiens, UniProt P14867+P18507+P47869+P47870); assay type: functional, cell-based
Sequence of Gamma-aminobutyric acid receptor subunit alpha-1/alpha-2/beta-2/gamma-2 (P14867 whole entry): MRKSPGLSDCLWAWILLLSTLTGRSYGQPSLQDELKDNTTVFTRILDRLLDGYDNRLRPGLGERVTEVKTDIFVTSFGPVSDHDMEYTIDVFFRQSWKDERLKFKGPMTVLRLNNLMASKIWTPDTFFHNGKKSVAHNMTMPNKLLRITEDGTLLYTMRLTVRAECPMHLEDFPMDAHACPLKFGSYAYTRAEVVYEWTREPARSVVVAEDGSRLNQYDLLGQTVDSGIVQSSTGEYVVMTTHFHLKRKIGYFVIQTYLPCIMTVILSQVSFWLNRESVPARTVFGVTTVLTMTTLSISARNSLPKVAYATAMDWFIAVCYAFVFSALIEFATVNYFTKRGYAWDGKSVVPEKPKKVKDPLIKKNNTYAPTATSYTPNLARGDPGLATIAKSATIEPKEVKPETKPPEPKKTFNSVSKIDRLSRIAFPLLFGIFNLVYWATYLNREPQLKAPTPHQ
Sequence of Gamma-aminobutyric acid receptor subunit alpha-1/alpha-2/beta-2/gamma-2 (P47870 whole entry): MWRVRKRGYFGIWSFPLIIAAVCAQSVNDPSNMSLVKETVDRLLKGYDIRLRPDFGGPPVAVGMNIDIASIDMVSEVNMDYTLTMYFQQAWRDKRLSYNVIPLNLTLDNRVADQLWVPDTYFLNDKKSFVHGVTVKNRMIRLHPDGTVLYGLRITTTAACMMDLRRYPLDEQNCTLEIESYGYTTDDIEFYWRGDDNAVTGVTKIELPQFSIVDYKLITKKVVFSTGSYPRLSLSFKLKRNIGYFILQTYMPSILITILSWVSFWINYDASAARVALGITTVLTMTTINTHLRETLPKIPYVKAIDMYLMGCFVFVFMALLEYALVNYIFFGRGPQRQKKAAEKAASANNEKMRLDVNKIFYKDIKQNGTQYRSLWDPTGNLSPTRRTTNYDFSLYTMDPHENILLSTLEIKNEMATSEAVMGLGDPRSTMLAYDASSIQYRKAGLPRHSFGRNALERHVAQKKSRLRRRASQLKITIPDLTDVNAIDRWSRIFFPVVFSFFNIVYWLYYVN
Sequence of Gamma-aminobutyric acid receptor subunit alpha-1/alpha-2/beta-2/gamma-2 (P18507 whole entry): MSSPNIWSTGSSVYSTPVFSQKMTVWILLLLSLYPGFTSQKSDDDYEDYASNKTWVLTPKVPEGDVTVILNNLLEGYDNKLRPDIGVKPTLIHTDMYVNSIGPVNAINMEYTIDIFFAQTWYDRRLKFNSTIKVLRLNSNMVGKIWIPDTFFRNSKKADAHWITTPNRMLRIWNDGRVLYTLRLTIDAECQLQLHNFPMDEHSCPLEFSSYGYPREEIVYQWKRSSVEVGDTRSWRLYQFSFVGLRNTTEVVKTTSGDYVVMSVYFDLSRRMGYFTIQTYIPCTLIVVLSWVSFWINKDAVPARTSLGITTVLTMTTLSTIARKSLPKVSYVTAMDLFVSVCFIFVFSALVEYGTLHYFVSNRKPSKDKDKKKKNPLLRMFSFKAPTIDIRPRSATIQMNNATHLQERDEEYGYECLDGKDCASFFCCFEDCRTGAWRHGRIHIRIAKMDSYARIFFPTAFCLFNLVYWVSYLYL
Sequence of Gamma-aminobutyric acid receptor subunit alpha-1/alpha-2/beta-2/gamma-2 (P47869 whole entry): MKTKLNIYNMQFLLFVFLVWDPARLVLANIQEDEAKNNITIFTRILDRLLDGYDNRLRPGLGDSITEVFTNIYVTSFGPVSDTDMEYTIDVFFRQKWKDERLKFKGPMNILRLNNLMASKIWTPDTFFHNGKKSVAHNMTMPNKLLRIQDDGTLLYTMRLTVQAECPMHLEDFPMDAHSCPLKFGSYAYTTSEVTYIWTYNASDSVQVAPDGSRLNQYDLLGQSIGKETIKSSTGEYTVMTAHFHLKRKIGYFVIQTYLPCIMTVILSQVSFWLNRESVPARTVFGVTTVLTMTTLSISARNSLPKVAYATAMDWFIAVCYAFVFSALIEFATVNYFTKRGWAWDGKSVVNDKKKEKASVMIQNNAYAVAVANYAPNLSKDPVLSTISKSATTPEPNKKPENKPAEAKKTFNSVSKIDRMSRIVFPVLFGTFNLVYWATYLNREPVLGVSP

[9] = biological target: T3, Estrogen receptor; assay type: functional
[10] = biological target: T3, Estrogen receptor; assay type: functional; remark: listed apart in the source
Also: assay procedure not described here.

Sequence of Gamma-aminobutyric acid receptor subunit alpha-1 (P62813 whole entry): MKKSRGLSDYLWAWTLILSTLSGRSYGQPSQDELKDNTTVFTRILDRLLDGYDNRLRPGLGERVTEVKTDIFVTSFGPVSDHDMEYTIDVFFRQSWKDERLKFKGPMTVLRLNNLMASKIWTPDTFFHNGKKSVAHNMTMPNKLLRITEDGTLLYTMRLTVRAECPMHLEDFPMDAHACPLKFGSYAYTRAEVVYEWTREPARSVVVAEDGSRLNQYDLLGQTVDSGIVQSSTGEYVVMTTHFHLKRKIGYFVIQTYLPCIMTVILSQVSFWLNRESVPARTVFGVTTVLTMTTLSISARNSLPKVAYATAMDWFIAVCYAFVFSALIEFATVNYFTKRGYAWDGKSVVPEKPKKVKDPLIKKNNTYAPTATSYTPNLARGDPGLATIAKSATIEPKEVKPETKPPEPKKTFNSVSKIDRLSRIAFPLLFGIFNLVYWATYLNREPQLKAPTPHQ

Row | Compound | AC50 [1] [µM] | AC50 [2] [µM] | AC50 [3] [µM] | AC50 [4] [µM] | AC50 [5] [µM] | AC50 [6] [µM] | AC50 [7] [µM] | AC50 [8] [µM] | AC50 [9] [µM] | AC50 [10] [µM]
1 | O=C(O)[C@@H](S)[C@@H](S)C(=O)O | > 30 | > 30 | – | – | – | – | – | – | – | –
2 | CC#CC(=O)N1CCC[C@H]1c1nc(-c2ccc(C(=O)Nc3ccccn3)cc2)c2c(N)nccn12 [ACALABRUTINIB] | > 30 | > 30 | – | – | – | – | – | – | – | –
3 | CN(C)CCC=C1c2ccccc2CCc2ccccc21 [AMITRIPTYLINE] | – | – | > 30 | > 30 | > 10 | 0.0299 | > 30 | – | – | –
4 | CC(=O)Oc1ccccc1C(=O)O [ASPIRIN] | – | – | > 30 | 15.1 | > 10 | > 10 | > 30 | – | – | –
5 | O=C(Cc1cccs1)N[C@@H]1C(=O)N2C(C(=O)[O-])=C(C[n+]3ccccc3)CS[C@H]12 [CEPHALORIDINE] | > 30 | > 30 | – | – | – | – | – | > 30 | – | –
6 | C[C@H](Nc1ncnc2[nH]cnc12)c1cc2cccc(Cl)c2c(=O)n1-c1ccccc1 [DUVELISIB] | > 30 | > 30 | – | – | – | – | > 30 | > 30 | > 30 | > 30
7 | NCC1(CC(=O)O)CCCCC1 [GABAPENTIN] | – | – | > 30 | – | > 10 | > 10 | > 30 | > 30 | – | –
8 | C[C@@H](O)[C@H]1C(=O)N2C(C(=O)O)=C(SCCN=CN)C[C@H]12 [IMIPENEM ANHYDROUS] | – | – | – | – | – | – | > 300 | > 2000 | > 300 | > 300
9 | O=C1[C@@H]2[C@H]3CC[C@H](C3)[C@@H]2C(=O)N1C[C@@H]1CCCC[C@H]1CN1CCN(c2nsc3ccccc23)CC1 [LURASIDONE] | – | – | – | – | – | – | > 30 | > 30 | > 30 | > 30
10 | CCCCCCO[C@@H](C)c1cccc(-c2csc(NC(=O)c3cc(Cl)c(/C=C(\C)C(=O)O)c(Cl)c3)n2)c1OC [LUSUTROMBOPAG] | > 30 | > 30 | – | – | – | – | – | – | – | –
11 | CO[C@@H]1[C@@H](OC(N)=O)[C@@H](O)[C@H](Oc2ccc3c(O)c(NC(=O)c4ccc(O)c(CC=C(C)C)c4)c(=O)oc3c2C)OC1(C)C [NOVOBIOCIN] | – | – | – | – | – | – | 25 | > 30 | > 30 | > 30
12 | C#CCN(C)Cc1ccccc1 [PARGYLINE] | > 30 | > 30 | – | – | – | – | – | > 30 | – | –
13 | COc1cc2c(cc1OC)C1CC(=O)C(CC(C)C)CN1CC2 (configuration not stated) [TETRABENAZINE] | – | – | – | – | – | – | > 30 | > 30 | > 30 | > 30
14 | c1cnc2cc3c(cc2n1)[C@@H]1CNC[C@H]3C1 [VARENICLINE] | – | – | – | – | – | – | > 30 | > 30 | > 30 | 4.6
15 | Nc1c2c(nc3ccccc13)CCCC2O (configuration not stated) [VELNACRINE] | – | – | – | – | – | – | > 30 | > 30 | > 30 | > 10
